Test results published in the NIST ThermoML archive (doi:10.1016/j.jct.2014.09.005).
± gives the expanded uncertainty stated by the source.

Assays:
[1] = xn = mol fraction of the nth substance listed; details: 101 kPa, Liquid; for viscosity: Capillary tube (Ostwald / Ubbelohde) method; for mass density: Vibrating tube method
[2] = refractive index (Na D-line) (dimensionless); xn = mol fraction of the nth substance listed; details: 101 kPa, Liquid, Standard Abbe refractometry

NC1CCCCC1 [cyclohexylamine] + CCCCCCCCCCO
Details | mass density, [1] [kg/m3] | refractive index, [2] | viscosity, [1] [mPa·s]
293.15 K, x2 = 0.0957 | – | 1.4563 ± 0.00037 | –
293.15 K, x2 = 0.153 | 860.33 ± 0.23 | 1.45514 ± 0.00037 | 3.133 ± 0.067
293.15 K, x2 = 0.1955 | – | 1.45413 ± 0.00037 | –
293.15 K, x2 = 0.1956 | 858.62 ± 0.23 | – | 3.48 ± 0.074
293.15 K, x2 = 0.2939 | 855.14 ± 0.24 | 1.45191 ± 0.00037 | 4.452 ± 0.094
293.15 K, x2 = 0.3417 | 853.45 ± 0.24 | 1.45101 ± 0.00037 | 5.014 ± 0.11
293.15 K, x2 = 0.4077 | 851.25 ± 0.24 | 1.44965 ± 0.00037 | 5.81 ± 0.12
293.15 K, x2 = 0.4581 | 849.54 ± 0.24 | 1.44855 ± 0.00037 | 6.48 ± 0.14
293.15 K, x2 = 0.5059 | 847.91 ± 0.24 | 1.44765 ± 0.00037 | 7.159 ± 0.15
293.15 K, x2 = 0.5401 | 846.76 ± 0.24 | – | 7.628 ± 0.16
293.15 K, x2 = 0.6042 | 844.53 ± 0.24 | 1.44562 ± 0.00037 | 8.558 ± 0.18
293.15 K, x2 = 0.6538 | 842.75 ± 0.24 | 1.44463 ± 0.00037 | 9.276 ± 0.2
293.15 K, x2 = 0.7021 | 840.98 ± 0.24 | 1.44358 ± 0.00037 | 9.963 ± 0.21
293.15 K, x2 = 0.8084 | 837.02 ± 0.24 | 1.44133 ± 0.00037 | 11.52 ± 0.24
293.15 K, x2 = 0.8868 | 834.1 ± 0.24 | 1.43957 ± 0.00037 | 12.69 ± 0.27
298.15 K, x2 = 0.0957 | – | 1.45392 ± 0.00037 | –
298.15 K, x2 = 0.153 | 856.19 ± 0.24 | 1.45279 ± 0.00037 | 2.749 ± 0.058
298.15 K, x2 = 0.1955 | – | 1.45174 ± 0.00037 | –
298.15 K, x2 = 0.1956 | 854.54 ± 0.24 | – | 3.049 ± 0.065
298.15 K, x2 = 0.2939 | 851.2 ± 0.24 | 1.44964 ± 0.00037 | 3.853 ± 0.082
298.15 K, x2 = 0.3417 | 849.56 ± 0.24 | 1.44874 ± 0.00037 | 4.308 ± 0.091
298.15 K, x2 = 0.4077 | 847.42 ± 0.24 | 1.44743 ± 0.00037 | 4.923 ± 0.1
298.15 K, x2 = 0.4581 | 845.76 ± 0.24 | 1.44648 ± 0.00037 | 5.456 ± 0.12
298.15 K, x2 = 0.5059 | 844.17 ± 0.24 | 1.44554 ± 0.00037 | 5.991 ± 0.13
298.15 K, x2 = 0.5401 | 843.04 ± 0.24 | 1.44481 ± 0.00037 | 6.38 ± 0.14
298.15 K, x2 = 0.6042 | 840.86 ± 0.24 | 1.44365 ± 0.00037 | 7.124 ± 0.15
298.15 K, x2 = 0.6538 | 839.13 ± 0.24 | 1.44254 ± 0.00037 | 7.689 ± 0.16
298.15 K, x2 = 0.7021 | 837.39 ± 0.24 | 1.44141 ± 0.00037 | 8.24 ± 0.17
298.15 K, x2 = 0.8084 | 833.53 ± 0.24 | 1.43935 ± 0.00037 | 9.512 ± 0.2
298.15 K, x2 = 0.8868 | 830.66 ± 0.24 | 1.43762 ± 0.00037 | 10.41 ± 0.22
303.15 K, x2 = 0.0957 | – | 1.4514 ± 0.00037 | –
303.15 K, x2 = 0.153 | 851.99 ± 0.24 | 1.45031 ± 0.00037 | 2.406 ± 0.051
303.15 K, x2 = 0.1955 | – | 1.44938 ± 0.00037 | –
303.15 K, x2 = 0.1956 | 850.41 ± 0.24 | – | 2.663 ± 0.057
303.15 K, x2 = 0.2939 | 847.19 ± 0.24 | 1.44747 ± 0.00037 | 3.347 ± 0.071
303.15 K, x2 = 0.3417 | 845.61 ± 0.24 | 1.44642 ± 0.00037 | 3.711 ± 0.079
303.15 K, x2 = 0.4077 | 843.53 ± 0.24 | 1.44514 ± 0.00037 | 4.216 ± 0.089
303.15 K, x2 = 0.4581 | 841.91 ± 0.24 | 1.44424 ± 0.00037 | 4.654 ± 0.099
303.15 K, x2 = 0.5059 | 840.37 ± 0.24 | 1.44335 ± 0.00037 | 5.075 ± 0.11
303.15 K, x2 = 0.5401 | 839.27 ± 0.24 | 1.44256 ± 0.00037 | 5.393 ± 0.11
303.15 K, x2 = 0.6042 | 837.14 ± 0.24 | 1.44137 ± 0.00037 | 5.985 ± 0.13
303.15 K, x2 = 0.6538 | 835.46 ± 0.24 | 1.44039 ± 0.00037 | 6.457 ± 0.14
303.15 K, x2 = 0.7021 | 833.76 ± 0.24 | 1.43943 ± 0.00037 | 6.893 ± 0.15
303.15 K, x2 = 0.8084 | 829.98 ± 0.24 | 1.43724 ± 0.00037 | 7.904 ± 0.17
303.15 K, x2 = 0.8868 | 827.17 ± 0.24 | 1.43565 ± 0.00037 | 8.649 ± 0.18
